Test results reported in article PMC5437844 (Journal of medicinal chemistry, 2017).
≈ marks a conversion by molar mass, not a printed value. Entries after “also recorded” stand apart in the source; their conditions may differ. Read-outs that look alike come from different tables or passages of the source.

Assays:
[1] = target: human FPPS (HsFPPS) (Homo sapiens, UniProt P14324); experiment: HsFPPS inhibition assay; format: biochemical; conditions: data not shown
[2] = test system: vancomycin-resistant Enterococcus faecalis ATCC 51299; experiment: Multi-step resistance selection; format: cell-based; conditions: one-fold increase = MIC x → 2x
[3] = test system: C. elegans AU37; format: in vivo, Caenorhabditis elegans; conditions: 20 μg/mL, 24 hours exposure
[4] = test system: E. faecalis and E. faecium; experiment: MIC and MBC against strains of E. faecalis and E. faecium; format: cell-based
[5] = human liver microsomes; cited from earlier work
[6] = test system: vancomycin-resistant Enterococcus faecium HM-968; experiment: Multi-step resistance selection; format: cell-based; conditions: one-fold increase = MIC x → 2x
[7] = test system: human colorectal (HRT-18) cells; experiment: MTS cytotoxicity assay; format: cell-based; conditions: for Non-toxic up to (concentration): tested 5-40 μg/mL
[8] = test system: E. faecalis; experiment: MIC against E. faecalis isolates; conditions: Enterococcus faecalis
[9] = test system: vancomycin-resistant Enterococcus faecium ATCC 700221; experiment: Time-kill analysis; format: cell-based; conditions: 4 × MIC, 24 hour incubation, 37 °C
[10] = test system: Gram-negative pathogens; experiment: MIC against Gram-negative pathogens
[11] = test system: vancomycin-resistant S. aureus (VRSA); conditions: cited from earlier work
[12] = test system: Caco-2; conditions: polarized cell monolayer; ref not given; cited from earlier work
[13] = test system: E. faecalis NR-31975; experiment: UDP-N-acetylmuramyl-pentapeptide accumulation; format: cell-based, Enterococcus faecalis; conditions: 10 × MIC, 30 minutes
[14] = test system: vancomycin-resistant Enterococcus faecalis HM-201; experiment: Time-kill analysis; format: cell-based; conditions: 4 × MIC, 24 hour incubation, 37 °C
[15] = test system: E. coli ΔtolC; experiment: Bacterial Cytological Profiling; format: cell-based, Escherichia coli; conditions: 5 × MIC (25 μg/mL), two hours
[16] = polar aminoguanidine headgroup; source not stated; cited from earlier work
[17] = test system: MRSA; conditions: topical; cited from earlier work
[18] = test system: vancomycin-resistant Enterococcus faecalis HM-201; experiment: C. elegans VRE infection model; format: in vivo, Caenorhabditis elegans; conditions: 20 μg/mL, treated for 18 hours, relative to untreated worms
[19] = test system: E. faecalis HM-934; experiment: Re-sensitization of VRE to vancomycin; format: cell-based, Enterococcus faecalis; conditions: for MIC: Enterococcus faecalis; for Fold-improvement in MIC of vancomycin: with ½ × MIC Compound 1
[20] = test system: E. faecalis HM-201; experiment: Re-sensitization of VRE to vancomycin; format: cell-based, Enterococcus faecalis; conditions: for MIC: Enterococcus faecalis; for Fold-improvement in MIC of vancomycin: with ½ × MIC Compound 1
[21] = test system: E. faecium HM-968; experiment: Re-sensitization of VRE to vancomycin; format: cell-based, Enterococcus faecium; conditions: for MIC: Enterococcus faecium; for Fold-improvement in MIC of vancomycin: with ½ × MIC Compound 1
[22] = test system: E. faecium ATCC 700221; experiment: Re-sensitization of VRE to vancomycin; format: cell-based, Enterococcus faecium; conditions: for Fold-improvement in MIC of vancomycin: with ½ × MIC Compound 1
[23] = test system: E. faecalis ATCC 51299; experiment: Checkerboard assay; format: cell-based, Enterococcus faecalis; conditions: antibiotic in combination with compound 1
[24] = test system: E. faecium (ATCC 700221); experiment: Re-sensitization of VRE to gentamicin; format: cell-based, Enterococcus faecium; conditions: sub-inhibitory concentration of 1; data not shown
[25] = test system: E. faecalis (ATCC 51299); experiment: Re-sensitization of VRE to gentamicin; format: cell-based, Enterococcus faecalis; conditions: sub-inhibitory concentration of 1; data not shown
[26] = test system: VRE; conditions: administered orally, phase II clinical trial; cited from earlier work
[27] = strains of E. faecalis and E. faecium
[28] = Gram-negative pathogens of Table 1, compound alone
[29] = K. pneumoniae, P. aeruginosa and E. coli, tested alone
[30] = K. pneumoniae, P. aeruginosa and E. coli, with sub-inhibitory colistin

Chain of human FPPS (HsFPPS) (P14324 whole entry): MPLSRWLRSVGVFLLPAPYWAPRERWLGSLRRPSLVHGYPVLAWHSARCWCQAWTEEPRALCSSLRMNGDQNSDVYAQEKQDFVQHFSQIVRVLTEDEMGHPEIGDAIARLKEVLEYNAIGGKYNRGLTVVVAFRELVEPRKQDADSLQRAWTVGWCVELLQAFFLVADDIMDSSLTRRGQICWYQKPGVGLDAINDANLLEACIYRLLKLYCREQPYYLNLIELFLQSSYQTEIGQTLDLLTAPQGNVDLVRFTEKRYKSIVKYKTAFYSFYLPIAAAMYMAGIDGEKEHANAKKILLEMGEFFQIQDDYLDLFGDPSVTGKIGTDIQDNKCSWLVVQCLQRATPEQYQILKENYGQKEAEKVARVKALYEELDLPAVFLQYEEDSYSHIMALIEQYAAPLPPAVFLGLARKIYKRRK

Compound: CCCCc1ccc(-c2nc(C)c(/C(C)=N/NC(=N)N)s2)cc1 [Compound 1]
- Inhibition of FPPS [1]: no inhibition
- Shift in MIC over 14 serial passages [2]: one-fold increase
- Percent viable worms [3]: All worms survived
- MBC relative to MIC [4, 27]: equal to or one-fold higher
- Affinity to hepatic microsomal enzymes [5]: high affinity to hepatic microsomal enzymes
- Shift in MIC over 14 serial passages [6]: no shift in the MIC
- Non-toxic up to (concentration) ([7]; 24 hours incubation): 20 µg/mL
- Non-toxic up to (concentration) ([7]; two hours incubation): 20 µg/mL
- MIC [8]: 1 to 8 µg/mL (≈ 3.04 to 24.3 µM)
- Time-kill result (complete eradication of bacteria) [9]: within two hours
- MIC [10, 28]: 8 to 64 µg/mL (≈ 24.3 to 194 µM)
- Resensitization of VRSA to vancomycin [11]: resensitizes; also recorded: capable of resensitizing
- Caco-2 permeability, apical to basolateral [12]: limited ability to cross from the apical to basolateral surface
- UDP-N-acetylmuramyl pentapeptide accumulation [13]: large increases
- Time-kill result (complete eradication of bacteria) [14]: within two hours
- Cytological effect [15]: cells lysed and formed spheroplasts
- pKa [16]: ~ 7

Compound: C/C(=N\NC(=N)N)c1sc(-c2ccc(-c3ccccc3)cc2)nc1C [Compound 2]
- Shift in MIC over 14 serial passages [2]: a one-fold increase in MIC was observed after the sixth passage and an additional two-fold increase was observed after the eleventh passage
- MBC relative to MIC ([4]; against E. faecium): more than four-fold higher
- Shift in MIC over 14 serial passages [6]: one-fold increase
- Toxic at (concentration) ([7]; 24 hours incubation): 40 µg/mL
- Non-toxic up to (concentration) ([7]; 24 hours incubation): 20 µg/mL
- Non-toxic up to (concentration) ([7]; two hours incubation): 40 µg/mL
- MIC [8]: 16 µg/mL (≈ 45.8 µM)
- Time-kill result (complete eradication of bacteria) [9]: not capable of completely eradicating the bacteria
- MIC [10, 28]: > 128 µg/mL
- MIC [10, 29]: > 128 µg/mL
- MIC [10, 30]: 1 to 4 µg/mL (≈ 2.86 to 11.4 µM)
- Resensitization of VRSA to vancomycin [11]: capable of resensitizing
- Time-kill result (complete eradication of bacteria) [14]: within two hours
- pKa [16]: ~ 7

Compound: CCCCC#Cc1ccc(-c2nc(C)c(/C(C)=N/NC(=N)N)s2)cc1 [Compound 3]
- Shift in MIC over 14 serial passages [2]: one-fold increase
- MBC relative to MIC [4, 27]: equal to or one-fold higher
- Shift in MIC over 14 serial passages [6]: no shift in the MIC
- Toxic at (concentration) ([7]; 24 hours incubation): 40 µg/mL
- Non-toxic up to (concentration) ([7]; 24 hours incubation): 20 µg/mL
- Non-toxic up to (concentration) ([7]; two hours incubation): 40 µg/mL
- Reduction of MRSA burden in infected skin wounds [17]: 96%
- MIC [8]: 1 to 8 µg/mL (≈ 2.83 to 22.6 µM)
- Time-kill result (complete eradication of bacteria) [9]: four hours
- MIC [10, 28]: > 128 µg/mL
- MIC [10, 29]: > 128 µg/mL
- MIC [10, 30]: 1 to 4 µg/mL (≈ 2.83 to 11.3 µM)
- Caco-2 permeability, apical to basolateral [12]: limited ability to cross from the apical to basolateral surface
- Time-kill result (complete eradication of bacteria) [14]: within two hours
- pKa [16]: ~ 7

Compound: CC[C@H]1OC(=O)[C@H](C)[C@@H](O[C@H]2C[C@@](C)(OC)[C@@H](O)[C@H](C)O2)[C@H](C)[C@@H](O[C@@H]2O[C@H](C)C[C@H](N(C)C)[C@H]2O)[C@](C)(O)C[C@@H](C)C(=O)[C@H](C)[C@@H](O)[C@]1(C)O [Erythromycin, reference compound]
- MIC [10]: > 128 µg/mL
- MIC [10, 30]: 0.5 to 1 µg/mL (≈ 0.681 to 1.36 µM)

Compound: CC(=O)NC[C@H]1CN(c2ccc(N3CCOCC3)c(F)c2)C(=O)O1 [Linezolid, reference compound]
- Decrease in VRE burden in infected worms [18]: unable to reduce the burden of VRE
- Shift in MIC over 14 serial passages [2]: No increase in MIC
- MBC relative to MIC [4, 27]: more than four-fold higher
- Shift in MIC over 14 serial passages [6]: one-fold increase
- Time-kill result (complete eradication of bacteria) [9]: not able to generate a 10^3 × reduction in VRE CFU over 24 hours
- Time-kill result (complete eradication of bacteria) [14]: not able to generate a 10^3 × reduction in VRE CFU over 24 hours

Compound: CN[C@H](CC(C)C)C(=O)N[C@H]1C(=O)N[C@@H](CC(N)=O)C(=O)N[C@H]2C(=O)N[C@H]3C(=O)N[C@H](C(=O)N[C@H](C(=O)O)c4cc(O)cc(O)c4-c4cc3ccc4O)[C@H](O)c3ccc(c(Cl)c3)Oc3cc2cc(c3O[C@@H]2O[C@H](CO)[C@@H](O)[C@H](O)[C@H]2O[C@H]2C[C@](C)(N)[C@H](O)[C@H](C)O2)Oc2ccc(cc2Cl)[C@H]1O [Vancomycin]
- MIC ([19]; HM934, read-out: MIC of vancomycin, + ½ × MIC Compound 1): > 128 µg/mL
- MIC ([19]; HM934, read-out: MIC of vancomycin, vancomycin alone): > 512 µg/mL
- Fold-improvement in MIC of vancomycin [19]: No change
- Fold-improvement in MIC of vancomycin ([19]; listed as vancomycin): no resensitization
- MIC ([20]; HM201, read-out: MIC of vancomycin, + ½ × MIC Compound 1): > 128 µg/mL
- MIC ([20]; HM201, read-out: MIC of vancomycin, vancomycin alone): 512 µg/mL
- Fold-improvement in MIC of vancomycin [20]: No change
- Fold-improvement in MIC of vancomycin ([20]; listed as vancomycin): no resensitization
- MIC ([21]; HM968, read-out: MIC of vancomycin, + ½ × MIC Compound 1): > 128 µg/mL
- MIC ([21]; HM968, read-out: MIC of vancomycin, vancomycin alone): 1020 µg/mL
- Fold-improvement in MIC of vancomycin [21]: No change
- Fold-improvement in MIC of vancomycin ([21]; listed as vancomycin): no resensitization
- UDP-N-acetylmuramyl pentapeptide accumulation [13]: large increases
- MIC ([22]; Enterococcus faecium, ATCC700221, read-out: MIC of vancomycin, vancomycin alone): 256 µg/mL
- Fold-improvement in MIC of vancomycin [22]: 256-fold
- Fold-improvement in MIC of vancomycin ([22]; listed as vancomycin): 256 fold

Compound: CC1(C)S[C@@H]2[C@H](NC(=O)[C@H](N)c3ccccc3)C(=O)N2[C@H]1C(=O)O [ampicillin]
- FIC index [23]: 3.00

Compound: O=C(O)c1cn(C2CC2)c2cc(N3CCNCC3)c(F)cc2c1=O [ciprofloxacin]
- FIC index [23]: 0.50

Compound: C[C@H]1c2cccc(O)c2C(=O)C2=C(O)[C@]3(O)C(=O)C(C(N)=O)=C(O)[C@@H](N(C)C)[C@@H]3[C@@H](O)[C@@H]21 [doxycycline]
- FIC index [23]: 2.00

Compound: CNC(C)C1CCC(N)C(OC2C(N)CC(N)C(OC3OCC(C)(O)C(NC)C3O)C2O)O1 (stereo not shown) [gentamicin]
- Resensitization to gentamicin [24]: unable to resensitize
- Resensitization to gentamicin [25]: unable to resensitize

Compound: Ramoplanin
- Patients with suppressed gastrointestinal colonization of VRE [26]: up to 90%
